Bounds are passed on as bounds.

Sequence of GCN2 (Q9P2K8 whole entry): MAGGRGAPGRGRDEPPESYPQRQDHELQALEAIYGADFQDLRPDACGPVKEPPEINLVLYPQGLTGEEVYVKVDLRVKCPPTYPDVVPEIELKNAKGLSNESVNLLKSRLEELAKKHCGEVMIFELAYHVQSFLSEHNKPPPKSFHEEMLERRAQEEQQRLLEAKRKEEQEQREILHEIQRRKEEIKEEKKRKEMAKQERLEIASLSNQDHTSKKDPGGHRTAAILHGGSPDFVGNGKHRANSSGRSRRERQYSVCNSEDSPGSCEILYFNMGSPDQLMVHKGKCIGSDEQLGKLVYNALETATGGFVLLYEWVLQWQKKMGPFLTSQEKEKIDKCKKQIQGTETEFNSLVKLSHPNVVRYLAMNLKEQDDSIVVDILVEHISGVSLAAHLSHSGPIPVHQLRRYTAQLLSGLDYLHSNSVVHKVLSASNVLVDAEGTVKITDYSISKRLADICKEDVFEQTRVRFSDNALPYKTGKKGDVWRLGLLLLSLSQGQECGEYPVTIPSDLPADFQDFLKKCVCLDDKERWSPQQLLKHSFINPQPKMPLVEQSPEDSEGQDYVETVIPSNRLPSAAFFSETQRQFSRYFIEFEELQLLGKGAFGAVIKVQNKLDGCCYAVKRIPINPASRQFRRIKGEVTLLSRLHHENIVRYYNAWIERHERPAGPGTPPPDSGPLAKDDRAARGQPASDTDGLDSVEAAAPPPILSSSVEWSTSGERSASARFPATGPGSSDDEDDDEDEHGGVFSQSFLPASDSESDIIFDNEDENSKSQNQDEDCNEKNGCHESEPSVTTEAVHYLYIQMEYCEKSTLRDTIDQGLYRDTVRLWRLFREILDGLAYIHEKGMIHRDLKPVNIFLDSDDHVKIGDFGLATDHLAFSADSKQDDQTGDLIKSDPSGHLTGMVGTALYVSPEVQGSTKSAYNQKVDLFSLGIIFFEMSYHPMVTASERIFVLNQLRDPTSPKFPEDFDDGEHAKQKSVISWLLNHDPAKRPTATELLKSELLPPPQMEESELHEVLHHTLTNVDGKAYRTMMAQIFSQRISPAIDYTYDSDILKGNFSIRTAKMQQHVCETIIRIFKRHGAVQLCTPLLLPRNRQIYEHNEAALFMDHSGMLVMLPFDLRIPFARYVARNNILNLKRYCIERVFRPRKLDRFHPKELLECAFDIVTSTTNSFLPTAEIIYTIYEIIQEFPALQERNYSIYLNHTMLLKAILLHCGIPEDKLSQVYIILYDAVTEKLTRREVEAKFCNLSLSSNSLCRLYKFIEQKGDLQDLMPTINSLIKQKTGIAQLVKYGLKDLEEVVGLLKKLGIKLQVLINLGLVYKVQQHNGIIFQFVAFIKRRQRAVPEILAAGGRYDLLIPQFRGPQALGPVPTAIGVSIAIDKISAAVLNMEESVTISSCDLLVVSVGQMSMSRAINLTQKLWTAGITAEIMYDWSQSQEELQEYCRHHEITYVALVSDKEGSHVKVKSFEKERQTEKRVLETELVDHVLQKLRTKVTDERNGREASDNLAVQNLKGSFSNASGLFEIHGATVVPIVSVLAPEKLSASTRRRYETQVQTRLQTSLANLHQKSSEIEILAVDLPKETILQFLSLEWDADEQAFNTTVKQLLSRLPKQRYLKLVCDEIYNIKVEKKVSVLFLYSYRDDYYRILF

This experiment addresses GCN2 (Homo sapiens (Human), UniProt Q9P2K8). Nature of the experiment: GCN2 Biochemical Assay (TR-FRET, GFP-eIF2S1 substrate phosphorylation). As to conditions: read-out: IC50 (GCN2 Inhibitory Activity). In outline: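 In-house GCN2 (1.6 nM 2× stock) phosphorylates GFP-eIF2S1 (50 nM 2× stock) with ATP (0.2 mM 2× stock) and tRNA, pH 7.5, 70 min at room temperature; 10-point 3.16-fold compound series. TR-FRET detection with Tb-anti-phospho antibody, 2–3 h, Ex 340/Em 490/520 nm; artifact plate spiked with phospho-substrate.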
(TR-FRET usually uses a lanthanide donor and a delayed reading to cut background.)
As to `Cc1cnc(Nc2cc(C)n(C)n2)nc1-c1c[nH]c2c(N3Cc4c(I)cccc4C3=O)cccc12` [Example 278, 2-(3-(2-((1,5-dimethyl-1H-pyrazol-3-yl)amino)-5-methylpyrimidin-4-yl)-1H-indol-7-yl)-4-iodoisoindolin-1-one], the half-maximal inhibitory concentration (IC50) (as a rule, the concentration needed to halve the response being measured) is under 10 nM.

For the compound `Cc1cnc(Nc2cc(C)n(C)n2)nc1-c1c[nH]c2c(NC(=O)CN3CC[C@H](Oc4ncc(F)c(N5CCCC5)n4)C3)cccc12` [Example 186, (S)-N-(3-(2-((1,5-dimethyl-1H-pyrazol-3-yl)amino)-5-methylpyrimidin-4-yl)-1H-indol-7-yl)-2-(3-((5-fluoro-4-(pyrrolidin-1-yl)pyrimidin-2-yl)oxy)pyrrolidin-1-yl)acetamide], the IC50 was under 10 nM.

On to `Cc1cnc(Nc2cc(C)n(C)n2)nc1-c1c[nH]c2c(N3Cc4c(NC(=O)N5CCOCC5)cccc4C3=O)cccc12` [Example 296, N-(2-(3-(2-((1,5-dimethyl-1H-pyrazol-3-yl)amino)-5-methylpyrimidin-4-yl)-1H-indol-7-yl)-1-oxoisoindolin-4-yl)morpholine-4-carboxamide], for which the IC50 was under 10 nM.

As for `Cc1ccc(S(=O)(=O)Nc2cccc3c2CN(c2cccc4c(-c5nc(Nc6cc(C)n(C)n6)ncc5C)c[nH]c24)C3=O)cc1` [Example 343, N-(2-(3-(2-((1,5-dimethyl-1H-pyrazol-3-yl)amino)-5-methylpyrimidin-4-yl)-1H-indol-7-yl)-1-oxoisoindolin-4-yl)-4-methylbenzenesulfonamide], the 50% inhibitory concentration (IC50) fell in the range of 10 to 100 nM.

Turning to `CNc1nc(O[C@H]2CCN(CC(=O)Nc3cccc4c(-c5nc(Nc6cc(C)n(C)n6)ncc5C)c[nH]c34)C2)ncc1F` [Example 177, (S)-N-(3-(2-((1,5-dimethyl-1H-pyrazol-3-yl)amino)-5-methylpyrimidin-4-yl)-1H-indol-7-yl)-2-(3-((5-fluoro-4-(methylamino)pyrimidin-2-yl)oxy)pyrrolidin-1-yl)acetamide], the IC50 is under 10 nM.

Consider `Cc1cnc(Nc2cc(C)n(C)n2)nc1-c1c[nH]c2c(NC(=O)CN3CC[C@H](Oc4ccsc4C(N)=O)C3)cccc12` [Example 109, (S)-3-((1-(2-((3-(2-((1,5-dimethyl-1H-pyrazol-3-yl)amino)-5-methylpyrimidin-4-yl)-1H-indol-7-yl)amino)-2-oxoethyl)pyrrolidin-3-yl)oxy)thiophene-2-carboxamide], for which the IC50 was under 10 nM.

With `Cc1cnc(Nc2cc(C)n(C)n2)nc1-c1c[nH]c2c(N3Cc4c(NC(=O)C5CC5)cccc4C3=O)cccc12` [Example 300, N-(2-(3-(2-((1,5-dimethyl-1H-pyrazol-3-yl)amino)-5-methylpyrimidin-4-yl)-1H-indol-7-yl)-1-oxoisoindolin-4-yl)cyclopropanecarboxamide], the IC50 was under 10 nM.

As to `Cc1cnc(Nc2cc(C)n(C)n2)nc1-c1c[nH]c2c(NC(=O)CN3CC[C@H](Oc4nccc(C5=CCC(C)(C)CC5)n4)C3)cccc12` [Example 252, (S)-N-(3-(2-((1,5-dimethyl-1H-pyrazol-3-yl)amino)-5-methylpyrimidin-4-yl)-1H-indol-7-yl)-2-(3-((4-(4,4-dimethylcyclohex-1-en-1-yl)pyrimidin-2-yl)oxy)pyrrolidin-1-yl)acetamide], the IC50 lay within 10 to 100 nM.

Turning to `Cc1cnc(Nc2cc(C)n(C)n2)nc1-c1c[nH]c2c(NC(=O)CN3CC[C@H](Oc4ccnc(NC5CC5)n4)C3)cccc12` [Example 207, (S)-2-(3-((2-(cyclopropylamino)pyrimidin-4-yl)oxy)pyrrolidin-1-yl)-N-(3-(2-((1,5-dimethyl-1H-pyrazol-3-yl)amino)-5-methylpyrimidin-4-yl)-1H-indol-7-yl)acetamide], the IC50 was under 10 nM.

In the case of `Cc1cnc(Nc2cc(C)n(C)n2)nc1-c1c[nH]c2c(N3Cc4c(cccc4-c4ccc5cnn(C)c5c4)C3=O)cccc12` [Example 450, 2-(3-(2-((1,5-dimethyl-1H-pyrazol-3-yl)amino)-5-methylpyrimidin-4-yl)-1H-indol-7-yl)-4-(i-methyl-1H-indazol-6-yl)isoindolin-1-one], the IC50 was in the range of 10 to 100 nM.

For the compound `Cc1cc(-c2cccc3c2CN(c2cccc4c(-c5nc(Nc6cc(C)n(C)n6)ncc5C)c[nH]c24)C3=O)ccn1` [Example 429, 2-(3-(2-((1,5-dimethyl-1H-pyrazol-3-yl)amino)-5-methylpyrimidin-4-yl)-1H-indol-7-yl)-4-(2-methylpyridin-4-yl)isoindolin-1-one], the IC50 is under 10 nM.

For `Cc1cnc(Nc2cc(C)n(C)n2)nc1-c1c[nH]c2c(NC(=O)CN3CC[C@H](Oc4ncc(-c5ccncc5)cn4)C3)cccc12` [Example 256, (S)-N-(3-(2-((1,5-dimethyl-1H-pyrazol-3-yl)amino)-5-methylpyrimidin-4-yl)-1H-indol-7-yl)-2-(3-((5-(pyridin-4-yl)pyrimidin-2-yl)oxy)pyrrolidin-1-yl)acetamide], the IC50 was 10 to 100 nM.

Regarding `Cc1cnc(Nc2cc(C)n(C)n2)nc1-c1c[nH]c2c(NC(=O)CN3CC[C@H](Oc4ccnc(N5CCN(C)CC5)n4)C3)cccc12` [Example 225, (S)-N-(3-(2-((1,5-dimethyl-1H-pyrazol-3-yl)amino)-5-methylpyrimidin-4-yl)-1H-indol-7-yl)-2-(3-((2-(4-methylpiperazin-1-yl)pyrimidin-4-yl)oxy)pyrrolidin-1-yl)acetamide], the IC50 is under 10 nM.

Regarding `COCCNc1nccc(O[C@H]2CCN(CC(=O)Nc3cccc4c(-c5nc(Nc6cc(C)n(C)n6)ncc5C)c[nH]c34)C2)n1` [Example 216, (S)-N-(3-(2-((1,5-dimethyl-1H-pyrazol-3-yl)amino)-5-methylpyrimidin-4-yl)-1H-indol-7-yl)-2-(3-((2-((2-methoxyethyl)amino)pyrimidin-4-yl)oxy)pyrrolidin-1-yl)acetamide], the IC50 was under 10 nM.

With `Cc1cnc(Nc2cc(C)n(C)n2)nc1-c1c[nH]c2c(NC(=O)CN3CC[C@@H](C(=O)N4CCOCC4)C3)cccc12` [Example 67, (R)-N-(3-(2-((1,5-dimethyl-1H-pyrazol-3-yl)amino)-5-methylpyrimidin-4-yl)-1H-indol-7-yl)-2-(3-(morpholine-4-carbonyl)pyrrolidin-1-yl)acetamide], the IC50 was 100 to 1000 nM.

For the compound `Cc1cnc(Nc2cc(C)n(C)n2)nc1-c1c[nH]c2c(N3Cc4c(cccc4-c4cnc(N(C)C)nc4)C3=O)cccc12` [Example 414, 2-(3-(2-((1,5-dimethyl-1H-pyrazol-3-yl)amino)-5-methylpyrimidin-4-yl)-1H-indol-7-yl)-4-(2-(dimethylamino)pyrimidin-5-yl)isoindolin-1-one], the IC50 was under 10 nM.

As to `Cc1cnc(Nc2cc(C)n(C)n2)nc1-c1c[nH]c2c(N3C(=O)c4cccc(Br)c4C3=O)cccc12` [Example 262, 4-bromo-2-(3-(2-((1,5-dimethyl-1H-pyrazol-3-yl)amino)-5-methylpyrimidin-4-yl)-1H-indol-7-yl)isoindoline-1,3-dione], the IC50 was under 10 nM.

On to `Cc1cnc(Nc2cc(C)n(C)n2)nc1-c1c[nH]c2c(N3Cc4c(cccc4-c4ccnc(CO)c4)C3=O)cccc12` [Example 472, 2-(3-(2-((1,5-dimethyl-1H-pyrazol-3-yl)amino)-5-methylpyrimidin-4-yl)-1H-indol-7-yl)-4-(2-(hydroxymethyl)pyridin-4-yl)isoindolin-1-one], for which the IC50 was under 10 nM.

The record behind these values is patent US20240025884A1 (Dong-A ST Co., Ltd., priority 2022, published 2024).
